Assay results as given in PubChem BioAssay AID340 (DTP/NCI, 2004).
“And” between values parts separate entries of the source, which are not always exact repeats. Equal values may be shown once. Toxic doses and inconclusive results are not listed. Rule for the calls: active = survival T/C of 150% or more; inactive = T/C below 125% in these data.

Tested on: CD2F1 mice, ip reticulum cell sarcoma, survival T/C
Test: NCI In Vivo Anticancer Drug Screen. Data for tumor model Reticulum Cell Sarcoma (Kelley Mouse) (intraperitoneal) in CD2F1 (CDF1) mice
Conditions: endpoint: median survival time, schedule: Q01DX010 (ip), vehicle: saline, higher = longer survival
Protocol: The antitumor activity of compounds was measured in mice bearing transplantable tumors. Survival or tumor size were measured and the results are expressed as the measurement made in the treated group (T) divided by the measurement made in the vehicle treated control group (C). The tumor model used in this assay is Reticulum Cell Sarcoma (Kelley Mouse) (intraperitoneal) in CD2F1 (CDF1) mice

Measured: T/C

N#C[C@@H]1C2C=CC(CC2)[C@H]1C#N
inactive: dose: 0.25 mg/kg/injection 97 % of control | dose: 0.5 mg/kg/injection 102 % of control and 105 % of control | dose: 1.0 mg/kg/injection 88 % of control and 94 % of control | dose: 2.0 mg/kg/injection 97 % of control and 100 % of control

Nc1ncnc2[nH]ncc12
inactive: dose: 1.5 mg/kg/injection 100 % of control and 107 % of control | dose: 3.0 mg/kg/injection 100 % of control and 110 % of control | dose: 6.0 mg/kg/injection 105 % of control and 110 % of control | dose: 12.0 mg/kg/injection 97 % of control and 100 % of control

O=C(O)CCCc1ccc(N(CCCl)CCCl)cc1
inactive: dose: 6.25 mg/kg/injection 103 % of control | dose: 12.5 mg/kg/injection 106 % of control

CCCSc1ncnc2nc[nH]c12
inactive: dose: 31.3 mg/kg/injection 100 % of control and 112 % of control | dose: 62.5 mg/kg/injection 96 % of control and 106 % of control | dose: 125.0 mg/kg/injection 96 % of control and 106 % of control | dose: 250.0 mg/kg/injection 109 % of control
